Measurements as given in patent US20240409935A1, “Atg8ylation coordinates stress granule formation and mTOR inactivation in response to lysosomal damage” (priority 2023, published 2024).

What was measured:
Type in all cases: cell-based, human
[1] = tested on: G3BP1 puncta (stress granules) in U2OS cells; experiment: HCM quantification of G3BP1 puncta (stress granule formation) in U2OS cells
[2] = tested on: mTOR and Raptor on lysosomes; experiment: LysoIP quantitative DIA proteomics (LC/MS/MS) of lysosomes from HEK293T cells; settings: 1 mM LLOMe for 30 min
Protocol: Three groups of proteins are labeled (ESCRT components in green, autophagy factors in blue and stress granule components in purple). […] The dotted orange line indicates the significance cut-off (P<0.05). […] The significant increased proteins in LysoIP LC/MS/MS were analyzed by STRING functional protein association networks. […] Strength, Log 10(observed/expected) describes how large the enrichment effect is. […] TMEM192-2×FLAG, control. […] U20S cells Were treated with Earle's Balanced Salt Solution (EBSS), 4 mM LOMe, 2 mM LLOMe, 200 μM GPN, or 400 μg/mL silica for 30 min. White masks, algorithm-defined cell boundaries (primary objects); red masks, computer-identified G3BP1 puncta (target objects). […] U2OS cells Were treated with 2 mM LLOMe for 30 min and stained for endogenous G3BP1. Scale bar, 5 μm. […] Green masks, computer-identified G3BP1 puncta. […] Red masks, computer-identified Galectin-3 puncta. FIG. 1G Immunoblot analysis of eIF2α (S51) phosphorylation in U2OS cells treated with 2 mM LLOMe for 30 min and followed by 1 h washout. […] The level of phosphorylation of eIF2α (S51) is quantified based on three independent experiments. […] Scale bar, 5/10 μm. […] The level of ATF4 and phosphorylation of eIF2α (S51) and 4EBP1 (S65) are quantified based on three independent experiments. Ctrl, control (untreated cells). […]

GABARAP = experiment: Immunoblot analysis of GABARAP lipidation in U2OS cells; settings: 2 mM LLOMe, indicated time points
ALIX, PKR and PACT = experiment: Co-IP analysis of interactions among FLAG-ALIX, PKR and PACT in HEK293T cells; settings: 1 mM LLOMe for 30 min
Protocol: HEK293T cells expressing FLAG (control) or FLAG-ALIX Were treated with 1 mM LLOMe for 30 min. Cell lysates Were immunoprecipitated with anti-FLAG antibody and immunoblotted for indicated proteins. […] FL (full length); Bro1 (Bro1 domain); V domain; PRD (proline-rich domain). Numbers, residue positions. (ii) Schematic illustration of the Ca^2+/ALG-2-induced open conformation of ALIX. […] HEK293T cells expressing FLAG tagged ALIX mutants and Myc-PKR Were treated with 1 mM LLOMe for 30 min. Cell lysates Were immunoprecipitated with anti-GFP antibody and immunoblotted for indicated proteins. FIG. 12F Analysis of proteins associated with purified lysosomes (LysoIP; TMEM192-3×HA) from HEK293T cells transfected with scrambled siRNA as control (SCR), or ALIX siRNA for knockdown (ALIX^KD). Cells Were treated with 1 mM LLOMe for 30 min. FIG. 12G Schematic summary of the findings in FIGS. 5 and S5. One of three independent western Blot experiments shown. See also FIG. 1S1.

SMILES: COC(=O)[C@H](CC(C)C)NC(=O)[C@@H](N)CC(C)C [LLOMe, L-leucyl-L-leucine methyl ester]
- number of SGs upon LLOMe washout ([1]; 2 mM LLOMe 30 min followed by 1 h washout): reduction in the number of SGs
- SG formation response (G3BP1 puncta) ([1]; agent alone for 30 min (2 mM LLOMe, 200 μM GPN, 400 μg/mL silica, 4 mM LOMe)): robust SG formation response
- mTOR and Raptor association with lysosomes (mass spectrometry) [2]: mTOR and Raptor dissociate from lysosomes
- GABARAP lipidation (GABARAP): GABARAP was lipidated
- interaction between FLAG-ALIX and endogenous PKR and PACT (co-IP) (ALIX, PKR and PACT): notably enhanced
